Test results: patent publication US20080153824A1, “Method for Controlling Fungal Diseases in Leguminous Plants” (BASF Aktiengesellschaft, priority 2004, published 2008)

System: soybean rust
Experiment: Seed dressing trial, activity against soybean rust
Type: in vivo, soybean rust on soybean plants (cultivar BRS 133)
Conditions: soybean seeds cultivar BRS 133 treated with 1000 g orysastrobin/100 kg of seed (SC, 250 g/l, liquid dressing); inoculated 3 weeks after sowing; assessed 11 days after inoculation; untreated-seed plants 79% infected
Description: Seed dressing trial, activity against soybean rust
Soybean seeds of the cultivar BRS 133 were treated with 1000 g of orysastrobin/100 kg of seed, formulated as SC with 250 g of active compound per liter, as liquid dressing, then sown into pots and cultivated in a greenhouse at about 22° C. 3 weeks after sowing, the plants were inoculated with soybean rust, incubated at 100% relative atmospheric humidity for 24 hours and then again cultivated in the greenhouse. At the time of inoculation, the first pair of leaves and one subsequent leaf had developed. The infection of the leaves was assessed 11 days after the inoculation.

Structure (SMILES): CNC(=O)/C(=N/OC)c1ccccc1CO/N=C(C)/C(=N/OC)C(C)=NOC (stereo in doubt) [orysastrobin, (2E)-2-(methoxyimino)-2-{2-[(3E,5E,6E)-5-(methoxyimino)-4,6-dimethyl-2,8-dioxa-3,7-diazanona-3,6-dien-1-yl]phenyl}-N-methylacetamide]
- total infection of the leaves: less than 1%
